{"source": "patent US8173593B2", "about": "“Methods and compositions for emergency contraception using endothelin receptor antagonists” (The Population Council, Inc., priority 2005, dated 2012)", "key": {"superovulated mice [1]": {"tested_on": "superovulated mice", "test": "oocyte count after antagonist injection during superovulation", "type": "in vivo", "conditions": "for decrease in number of oocytes: time effect", "description": "Pharmacological blockers of the endothelin receptor system were implemented to elucidate the role of ET-2 during superovulation. JKC301 (ETRA antagonist) and BQ788 (ETB antagonist) were injected 6 hours after hCG injection and an oocyte count was tabulated. […] BQ788 treatment was further investigated and found to have a time effect. BQ788 posted a 39%, 58%, and 66% decrease in number of oocytes at 4, 6 and 8 hours, respectively, after hCG injection.\n(§1) BQ788 was further tested to examine the manner in which this ETB antagonist reduced the number of oocytes. Histological sections of ovaries collected at 18 hours after hCG injection in superovulated mice that received either vehicle or BQ788 through i/p at 8 hours after hCG, were examined and found to have striking differences in the number of corpus lutea (photo not shown)."}, "superovulated mice [2]": {"tested_on": "superovulated mice", "test": "histological sections of ovaries collected 18 hours after hCG injection", "type": "in vivo", "description": "as §1"}, "endothelin-2": {"tested_on": "endothelin-2", "test": "inhibition of endothelin-2 function"}}}
{"smiles": "CCCC[C@@H](NC(=O)[C@@H](Cc1cn(C(=O)OC)c2ccccc12)NC(=O)[C@H](CC(C)(C)C)NC(=O)N1[C@H](C)CCC[C@@H]1C)C(=O)O", "note": "[BQ788, N-cis-2,6-dimethylpiperidinocarbonyl-L-gamma-methylleucyl-D-1-methoxycarbonyltryptophanyl-D-norleucine]", "values": [{"measurement": "decrease in the number of oocytes", "setting": "superovulated mice [1]; antagonist injected 6 hours after hCG injection, comparison of JKC301 and BQ788", "result": 65, "unit": "%"}, {"measurement": "decrease in number of oocytes", "setting": "superovulated mice [1]; BQ788 given 4 hours after hCG injection", "result": 39, "unit": "%"}, {"measurement": "decrease in number of oocytes", "setting": "superovulated mice [1]; BQ788 given 6 hours after hCG injection", "result": 58, "unit": "%"}, {"measurement": "decrease in number of oocytes", "setting": "superovulated mice [1]; BQ788 given 8 hours after hCG injection", "result": 66, "unit": "%"}, {"measurement": "inhibition of ovulation", "setting": "superovulated mice [2]; given at 8 hours, a stage very close to the ovulation", "result": "inhibition of ovulation by blocking follicle rupture in the ovary"}, {"measurement": "number of corpus lutea and unruptured follicles in ovary sections", "setting": "superovulated mice [2]; i/p at 8 hours after hCG, ovaries collected at 18 hours after hCG, versus vehicle", "result": "few corpus lutea and numerous unruptured follicles"}, {"measurement": "function of endothelin-2", "setting": "endothelin-2", "result": "inhibits function of endothelin-2"}]}
